{"source": "patent US20260355188A1", "about": "“COMBINATION THERAPIES USING PRMT5 INHIBITORS AND BCL-2 FAMILY INHIBITORS FOR THE TREATMENT OF CANCER” (MIRATI THERAPEUTICS, INC., priority 2022, published 2026)", "key": {"SW1573": {"tested_on": "SW1573", "experiment": "In vitro combination synergy, SW1573 (Cell-Titer Glo)", "type": "cell-based", "details": "combined with exemplary PRMT5 inhibitor, 120 h, sum of Loewe, Bliss, HSA and ZIP scores", "procedure": "(§1) A panel of MTAP-deleted cancer cell lines was assembled to determine whether combining BCL-2 family inhibitors with exemplary PRMT5 inhibitors disclosed herein results in synergistic activity.\n(§2) [Assays for determining the synergy score for the pairwise combinations for each cell line were performed in triplicate. 384 or 96-well plates plus additional wells of a separate 384 or 96-well control plate for determining baseline luminescence were seeded with cells of a particular MTAP-deleted cell line in a suitable growth medium for that cell line, e.g., RPMI 1640 medium supplemented with 10% FBS and any cell line specific reagents needed for growth. The plates were incubated overnight at 37 °C in a 5% CO2 atmosphere.\n(§3) To each of the designated baseline wells, Cell-Titer Glo reagent (CTG; Promega Corporation) was added to each well and the plates were incubated for 20 min shaking at room temperature. Baseline luminescence was quantitated using a BMG ClarioStar multimode plate reader according to the manufacturer's instructions.\n(§4) A series of 1000× drug dilutions in 100% DMSO was prepared that includes a 9-point single agent 3-fold dilution of the exemplary PRMT5 inhibitor (of the type described in WO2021/050915) with a top dose of 3000 nM (and a 6-point single agent 5-fold dilution of the BCL-2 family inhibitor with a top dose of 3000 nM as reference standards.\n(§5) A 10× intermediate dosing plate was prepared in serum free medium that contains arrayed single agent dilutions of exemplary PRMT5 inhibitor (of the type described in WO2021/050915) and or the BCL-2 family inhibitor. In addition, a matrix of 54 dilution combinations of exemplary PRMT5 inhibitor (of the type described in WO2021/050915) and the BCL-2 family inhibitor was prepared as test samples.\n(§6) To each corresponding well of the 384-well plates seeded with the appropriate cell line above, 10× single agent and the 54 combinations of the dose matrix was added and the plates were incubated for 120 hours at 37 °C in 5% CO2 atmosphere. Cell-Titer Glo reagent (CTG) was added to each test well, the plates were incubated for 20 min shaking at room temperature, and luminescence was quantitated using a BMG ClarioStar multimode plate reader according to the manufacturer's instructions. To normalize test samples, the determined baseline luminescence was subtracted from each test sample prior to analysis and mean values are calculated from replicate samples.\n(§7) The output of the data from each mathematical model is the assignment of a relative synergy score. The data reported in Table 6 are the aggregate sum of the Loewe additivity, Bliss independence, Highest Single Agent and ZIP synergy scores (“Composite Synergy Score”)."}, "[1]": {"tested_on": "NCI-H1650 xenograft tumors", "experiment": "In vivo combination study (NCI-H1650 model), Example 5", "design": "species or system female nu/nu mice", "details": "MRTX1719 and ABT-263 100 mg/kg PO QD, A-1331852 25 mg/kg PO BID, alone or combined", "text": "(§8) Immunodeficient female nu/nu mice were implanted with 5×10^6 LU99 cancer cells in 50% Matrigel. Tumor volume measurements were collected using calipers and determined utilizing the formula 0.5×L×W^2 in which L refers to length and W refers to width of each tumor. When tumors reached approximately 125-150 mm^3, animals were randomized to receive A) vehicle, B) a PRMT5 inhibitor, C) navitoclax (ABT-263), D) venetoclax (ABT-199), E) A-1331852, F) the PRMT5 inhibitor and navitoclax, F) the PRMT5 inhibitor and venetoclax, or G) the PRMT5 inhibitor and A-1331852 all administered orally (PO) with the indicated dose and schedule for 20-34 days. Tumor volume was measured twice a week (n=5/treatment group). Average tumor volume and standard error of the mean was calculated and plotted at each study day using GraphPad Prism.\nExample 5 was carried out using NCI-H1650 cell line derived xenografts according to the in vivo study procedure described above in Example 1.\n(§9) The PRMT5 inhibitor was MRTX1719 administered at 100 mg/kg once a day (QD). MRTX1719 is (2M)-2-(4-(4-(aminomethyl)-1-oxo-1,2-dihydrophthalazin-6-yl)-1-methyl-1H-pyrazol-5-yl)-4-chloro-6-cyclopropoxy-3-fluorobenzonitrile, disclosed as Example 16-8 at p. 307 of the international patent publication No. WO 2021/050915 A1, published 18 Mar. 2021, incorporated by reference in its entirety. The BCL-2 family inhibitor, ABT-263 (navitoclax), was administered at 100 mg/kg once a day (QD) and supplied by Selleck Chemicals (Houston, TX). The BCL-2 family inhibitor A-1331852 was administered at 25 mg/kg twice a day (BID) and synthesized at Wuxi AppTec (Wuhan, China)."}, "Mero83": {"tested_on": "Mero83", "experiment": "In vitro combination synergy, Mero83 (Cell-Titer Glo)", "type": "cell-based", "details": "combined with exemplary PRMT5 inhibitor, 120 h, sum of Loewe, Bliss, HSA and ZIP scores", "procedure": "as §1, §2, §3, §4, §5, §6, §7"}, "SW1573 xenograft tumors": {"tested_on": "SW1573 xenograft tumors", "experiment": "In vivo combination study (SW1573 model), Example 3", "design": "species or system female nu/nu mice", "details": "MRTX1719 and ABT-263 100 mg/kg PO QD, A-1331852 25 mg/kg PO QD, alone or combined", "text": "as §8\nExample 3 was carried out in SW1573 cell line derived xenografts according to the in vivo study procedure described above in Example 1.\nas §9, with “once” for “twice”, “(QD)” for “(BID)”"}, "[2]": {"tested_on": "NCI-H1437 xenograft tumors", "experiment": "In vivo combination study (NCI-H1437 model), Example 2", "design": "species or system female nu/nu mice", "details": "MRTX1719 and ABT-263 100 mg/kg PO QD, A-1331852 25 mg/kg PO QD, alone or combined", "text": "as §8\nExample 2 was carried out using NCI-H1437 cell line derived xenografts according to the in vivo study procedure described above in Example 1.\nas §9, with “once” for “twice”, “(QD)” for “(BID)”"}}, "data": [{"smiles": "CC1(C)CCC(c2ccc(Cl)cc2)=C(CN2CCN(c3ccc(C(=O)NS(=O)(=O)c4ccc(N[C@H](CCN5CCOCC5)CSc5ccccc5)c(S(=O)(=O)C(F)(F)F)c4)cc3)CC2)C1", "note": "[ABT-263, navitoclax]", "values": [{"measurement": "Composite Synergy Score", "setting": "SW1573", "value": 14}, {"measurement": "Average Tumor Volume", "setting": "[1]; day 0", "value": 155, "unit": "mm^3"}, {"measurement": "Average Tumor Volume", "setting": "[1]; day 5", "value": 186, "unit": "mm^3"}, {"measurement": "Average Tumor Volume", "setting": "[1]; day 8", "value": 210, "unit": "mm^3"}, {"measurement": "Average Tumor Volume", "setting": "[1]; day 13", "value": 302, "unit": "mm^3"}, {"measurement": "Average Tumor Volume", "setting": "[1]; day 15", "value": 319, "unit": "mm^3"}, {"measurement": "Average Tumor Volume", "setting": "[1]; day 19", "value": 339, "unit": "mm^3"}, {"measurement": "Average Tumor Volume", "setting": "[1]; day 22", "value": 371, "unit": "mm^3"}, {"measurement": "Composite Synergy Score", "setting": "Mero83", "value": "−26"}, {"measurement": "Average Tumor Volume", "setting": "SW1573 xenograft tumors; day 3", "value": 265, "unit": "mm^3"}, {"measurement": "Average Tumor Volume", "setting": "SW1573 xenograft tumors; day 6", "value": 328, "unit": "mm^3"}, {"measurement": "Average Tumor Volume", "setting": "SW1573 xenograft tumors; day 10", "value": 395, "unit": "mm^3"}, {"measurement": "Average Tumor Volume", "setting": "SW1573 xenograft tumors; day 13", "value": 536, "unit": "mm^3"}, {"measurement": "Average Tumor Volume", "setting": "SW1573 xenograft tumors; day 17", "value": 678, "unit": "mm^3"}, {"measurement": "Average Tumor Volume", "setting": "SW1573 xenograft tumors; day 20", "value": 809, "unit": "mm^3"}, {"measurement": "Average Tumor Volume", "setting": "SW1573 xenograft tumors; day 26", "value": 1133, "unit": "mm^3"}, {"measurement": "Average Tumor Volume", "setting": "SW1573 xenograft tumors; day −1", "value": 123, "unit": "mm^3"}, {"measurement": "Average Tumor Volume", "setting": "[2]; day 4", "value": 172, "unit": "mm^3"}, {"measurement": "Average Tumor Volume", "setting": "[2]; day 7", "value": 192, "unit": "mm^3"}, {"measurement": "Average Tumor Volume", "setting": "[2]; day 11", "value": 244, "unit": "mm^3"}, {"measurement": "Average Tumor Volume", "setting": "[2]; day 14", "value": 269, "unit": "mm^3"}, {"measurement": "Average Tumor Volume", "setting": "[2]; day 18", "value": 288, "unit": "mm^3"}, {"measurement": "Average Tumor Volume", "setting": "[2]; day 21", "value": 299, "unit": "mm^3"}, {"measurement": "Average Tumor Volume", "setting": "[2]; day 25", "value": 389, "unit": "mm^3"}, {"measurement": "Average Tumor Volume", "setting": "[2]; day 28", "value": 420, "unit": "mm^3"}, {"measurement": "Average Tumor Volume", "setting": "[2]; day 34", "value": 472, "unit": "mm^3"}, {"measurement": "Average Tumor Volume", "setting": "[2]; day −1", "value": 138, "unit": "mm^3"}]}]}
